These results are taken from patent US20250009734A1, “METHODS OF INHIBITING FOXO1 FOR TREATMENT OF LYMPHATIC DISORDERS” (UNIVERSITY OF SOUTH FLORIDA, priority 2023, published 2025).

Data set [1] has as its system human dermal lymphatic endothelial cells (hdLECs). Briefly: Immunostaining of PROX1 and β-catenin localization in cultured hdLECs. The format is cell-based. The conditions noted are these: 0.5 μM AS for 48 hours, DMSO control: almost exclusively on the cell membrane. The procedure:
(§1) FIGS. 2A-2F. AS1842856 elevates protein expression of valve genes and promotes b-catenin nuclear localization in cultured hdLECs. (A) hdLECs were cultured under static condition and treated for 48 hours with 0.5 μM DMSO (vehicle control) or 0.5 μM AS treatment. Thereafter, proteins were extracted, and western blot perform for the indicated proteins. ACTB is the loading control. (B) Quantification results of indicated proteins in western blot from three independent experiments. (C-F) Immunostaining of cultured hdLECs for PROX1 and CTNNB1 protein. All values are mean±SEM. n=3 experiment repeats; ns=not significant; *p≤0.05, **p≤0.01, ***p≤0.001. Vehicle control: 0.5 μM DMSO for 48 hours treatment. AS1842856: 0.5 μM AS1842856 for 48 hours treatment. Cells were stained for PROX1 (green) and CTNNB1 (purple). (E) and (F) are the merged images for PROX1 and CTNNB1. Scale bar is 50 μm.
In cells, phosphorylated β-catenin is degraded in a destruction complex in the cytoplasm, but unphosphorylated β-catenin upon activation is translocated to the nucleus from the cytoplasm (Harada et al., 1999). It has been reported that β-catenin in the nucleus of LECs promotes the expression of valve-forming genes FOXC2 and PROX1 by binding to the promoter areas of these two genes (Cha et al., 2016). […]

For data set [2] the test system is unchanged. Briefly: Western blot quantification of protein levels in cultured hdLECs. It is filed as cell-based. To be noted: 0.5 μM, 48 hours, vs vehicle control. The procedure:
as §1
Next, the inventors performed western blot on the cells treated with 0.5 μM for 48 hours to determine whether the expression of these genes on the protein level was consistent with the PCR results. Three independent experiments of cultured hdLECs were performed, similarly to the quantitative RT-qPCR experiments. Protein levels of FOXC2, GATA2, KLF4, ITGα9, GJA4, activated β-catenin, total β-catenin, PROX1, and FOXO1 were quantified from western blot.
Human dermal lymphatic endothelial cells (hdLECs) purchased from Promocell (C-12216) were cultured in EBM-V2 (PromoCell, C-22121) media on fibronectin (20 μl/well) coated 6-well plates. hdLECs were treated with 4 different conditions: DMSO (1 μM), AS1842856 (EMD Millipore Corporation) 0.1 μM, 0.5 μM and 1 μM for 3 different time points: 24, 48, and 72 hours for qRT-PCR. For western blot, hdLECs were treated with 0.5 μM AS1842856 for 48 hours.
hdLECs were washed 3 times with 1×PBS and 1×RIPA buffer and 100× phosphatase inhibitor (Pierce™, Thermoscientific) was added. A cell scraper was used to scrape the hdLECs off the 6-well plate. hdLECs were pipetted and submerged in lysis RIPA solution. The lysate was collected in a 1.5 mL protein LoBind tube and incubated for 15 mins in ice on an orbital shaker (Belly button, IBI Scientific) for complete lysis. The lysates were then centrifuged for 20 mins at 18300 RPM at 4° C. to and the supernatant was collected in a separate Protein LoBind tube without disturbing the pellet. A Bicinchoninic acid assay (BCA assay, Pierce™, Thermofisher) was performed to calculate protein concentration according to manufacturer's instructions and 25 μg of the total protein was utilized to perform the western blot. The Invitrogen™ mini gel tank apparatus was used to run the western blot on a 4-12% Blot™ Bis Tris Plus polyacrylamide gel. Protein transfer to a PVDF membrane was carried out using an iBlot 2 dry blotting system (Lifesciences, Thermofisher) under the P0 module. The iBind Flex western system (Thermo Fisher Scientific) was used to process the mini blots utilizing an incubation time of >2.5 hours after which the blots were imaged using a Bio-Rad ChemiDoc imaging system.
Quantification analysis of western blot bands was performed in the following manner: 1. Unsaturated western blot images (.scn) were opened with Image Lab 6.1 (Bio-Rad); 2. Using the “lane and bands” tool on the left sidebar of Image Lab, the lanes were defined and adjusted manually; 3. Using the “lane and bands” tool, the bands were identified manually with “add” bands option; 4. The “lane profile” tool was used to omit background; 5. The standard and sample lanes were labeled on the “image info” tool; 6. The adjusted volume (Int) value was obtained using the “lane analysis” tool on Image Lab; 7. Each protein's band volume was normalized to the band volume of the housekeeping protein (b-Actin); 8. Relative expression of each protein was calculated by normalizing the band volume of the experimental group (AS 0.5) to its control (DMSO).
(Immunoblotting shows a protein as a band on a membrane.)

For a further data set, the target named is FOXO4 (Homo sapiens, UniProt P98177). To be noted: Nagashima et al., 2010; cited from earlier work.
Chain of FOXO4 (P98177 whole entry, species assumed): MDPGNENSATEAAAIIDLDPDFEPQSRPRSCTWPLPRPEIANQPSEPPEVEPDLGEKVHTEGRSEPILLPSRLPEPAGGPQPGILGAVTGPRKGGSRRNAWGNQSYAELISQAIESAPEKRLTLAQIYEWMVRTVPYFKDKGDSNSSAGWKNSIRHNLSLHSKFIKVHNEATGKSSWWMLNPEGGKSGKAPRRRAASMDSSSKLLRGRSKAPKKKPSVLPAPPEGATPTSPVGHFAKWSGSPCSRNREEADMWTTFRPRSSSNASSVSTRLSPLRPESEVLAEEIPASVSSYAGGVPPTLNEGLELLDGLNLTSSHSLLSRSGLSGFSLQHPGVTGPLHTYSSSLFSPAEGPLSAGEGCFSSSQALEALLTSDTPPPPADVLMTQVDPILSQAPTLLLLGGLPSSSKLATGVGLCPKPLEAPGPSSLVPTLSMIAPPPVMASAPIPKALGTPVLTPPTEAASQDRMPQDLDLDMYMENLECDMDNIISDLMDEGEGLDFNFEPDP
For data set [3] the following is noted: Nagashima et al., 2010; cited from earlier work.

SMILES strings stand for the structures.

Regarding `CCn1cc(C(=O)O)c(=O)c2c(N)c(F)c(NC3CCCCC3)cc21` [AS1842856], the “localization of β-catenin (immunostaining)” value in data set [1] is “a remarkable amount of β-catenin was in the nucleus”. Moreover, in data set [2], the “FOXC2 protein expression level” value is on record as “significantly upregulated”, the FOXO1 protein expression result is reported as “did not change”, the “GATA2 protein expression level” value is given as “significantly upregulated” and the “GJA4 protein expression level” value is “significantly upregulated”. In addition, in data set [2], the “ITGA9 protein expression level” value was “significantly upregulated”, the “KLF4 protein expression level” value is “significantly upregulated”, the PROX1 protein level entry is given as “did not alter” and the “amount of active (non-phosphorylated) β-catenin protein” value is “increased significantly”. In data set [2], the “amount of p-GSK3β” value is listed as “significantly decreased”, the “amount of total GSK3β” value is “significantly increased” and the “amount of total β-catenin protein” value is given as “increased significantly”. In addition, at FOXO4, the “effect on inhibiting the activity of FOXO4” value is “minimal effect”. The cell permeability result in data set [3] is on record as “cell permeable”.
